The source made the active and inactive calls. No cut-off for these calls is given here.
Assays:
[1] = test system: Human immunodeficiency virus 1; assay: Antiviral activity against HIV-1 NL4-3 infected in human M8166 cells assessed as inhibition of viral replication at 20 uM after 5 days by p24 ELISA; format: functional, organism-based
[2] = test system: HEK-293T; assay: Binding affinity to HIV-1 NL4-3 capsid protein expressed in HEK293T cells by surface plasmon resonance analysis; conditions: Human immunodeficiency virus 1
[3] = test system: HEK-293T; assay: Binding affinity to HIV-1 NL4-3 Pr55Gag expressed in HEK293T cells by surface plasmon resonance analysis; conditions: Human immunodeficiency virus 1

Row | SMILES | inhibition [1] | Activity [2] | Activity [3]
1 | COC(=O)CCCC[C@@H]1SC[C@@H]2NC(=O)N[C@@H]21 | inactive | – | –
2 | NCCCCCCc1ccnc(SCc2nc3ccccc3s2)n1 | Active | – | –
3 | O=C(CCCC[C@@H]1SC[C@@H]2NC(=O)N[C@@H]21)NCCCCCCc1ccnc(SCc2nc3ccccc3s2)n1 | Active | inactive | inactive
4 | Cc1ccnc(SCc2nc3ccccc3s2)n1 | Active | – | –

Source: ChEMBL document CHEMBL3745633, “Synthesis of the biotinylated anti-HIV compound BMMP and the target identification study” (Bioorg Med Chem Lett, 2016)
